# Laboratory results taken from patent US20130152233A1, “5-FLUOROCYTOSINE AS A SEED TREATMENT AGENT TO CONTROL PLANT DISEASE” (Dow AgroSciences LLC, priority 2011, published 2013).
# Tested on: Mycosphaerella graminicola; anamorph: Septoria tritici; Bayer code SEPTTR
# Experiment: Fungicidal activity as a seed treatment for leaf blotch of wheat (SEPTTR), treated 'Yuma' wheat seeds
# Type: in vivo
# Method: Evaluation of Fungicidal Activity as a Seed Treatment for Leaf Blotch of Wheat (Mycosphaerella graminicola; anamorph: Septoria tritici; Bayer code […]) Seeds of wheat variety 'Yuma' were treated with a 1% weight-to-volume (w/v) solution of 5-fluorocytosine in water at rates of 16.5, 5.5, 1.8, and 0 grams of active ingredient per 100 kilograms (g ai/100 kg) of seeds. A red dye and a polymer blend were included in the formulation as inert ingredients. Seeds were allowed to dry thoroughly and were sown 3 days (trial 1) or 5 weeks (trials 2 and 3) after treatment. Seeds (10-12 seeds/pot) were planted in 4 square inch pots containing 50% mineral soil/50% soil-less Metro mix. Eleven-day-old seedlings were inoculated with an aqueous spore suspension of Septoria tritici, and 6-10 pots of plants were inoculated for each fungicide rate. After inoculation, plants were kept in 100% relative humidity three days to allow establishment of infection. The plants were then transferred to a greenhouse until disease developed. When disease on untreated plants was fully expressed , disease severities on treated plants were assessed. […] Trial 1 was the average of 10 pots of plants; Trial 2 was the average of 6 pots of plants; and Trial 3 was the average of 6 pots of plants placed in weigh boats in order to prevent possible loss of the 5-fluorocytosine from soil leaching. The following tables include data showing the activity of 5-fluorocytosine when evaluated in these experiments. The effectiveness of 5-fluorocytosine in controlling disease was determined by assessing the severity of disease on treated plants, then converting the severity to percent control based on the level of disease on untreated, inoculated plants.
structure (smiles),measurement,setting,value
Nc1nc(=O)[nH]cc1F [5-fluorocytosine],% Disease control (SEPTTR),"Trial 1, 1.8 g ai/100 kg seeds, sown 3 days after treatment, average of 10 pots",D (1-25)
same,% Disease control (SEPTTR),"Trial 1, 5.5 g ai/100 kg seeds, sown 3 days after treatment, average of 10 pots",C (26-50)
same,% Disease control (SEPTTR),"Trial 1, 16.5 g ai/100 kg seeds, sown 3 days after treatment, average of 10 pots",A (76-100)
same,% Disease control (SEPTTR),"Trial 2, 1.8 g ai/100 kg seeds, sown 5 weeks after treatment, average of 6 pots",C (26-50)
same,% Disease control (SEPTTR),"Trial 2, 5.5 g ai/100 kg seeds, sown 5 weeks after treatment, average of 6 pots",A (76-100)
same,% Disease control (SEPTTR),"Trial 2, 16.5 g ai/100 kg seeds, sown 5 weeks after treatment, average of 6 pots",A (76-100)
same,% Disease control (SEPTTR),"Trial 3, 1.8 g ai/100 kg seeds, sown 5 weeks after treatment, 6 pots in weigh boats",C (26-50)
same,% Disease control (SEPTTR),"Trial 3, 5.5 g ai/100 kg seeds, sown 5 weeks after treatment, 6 pots in weigh boats",A (76-100)
same,% Disease control (SEPTTR),"Trial 3, 16.5 g ai/100 kg seeds, sown 5 weeks after treatment, 6 pots in weigh boats",A (76-100)
same,control of SEPTTR (in words),test rate of 16.5 g ai/100 kg seeds,significant level of control
